# Source: patent publication US11673889B2, “Substituted imidazo[4,5-c][1,8]naphthyridines as phosphodiesterase inhibitors” (Nanjing Zhengxiang Pharmaceuticals Co., Ltd., priority 2019, dated 2023)
# Assays:
# human soluble ENPP1 [1] = target: T1, human soluble ENPP1 (Homo sapiens, UniProt P22413); experiment: ENPP1 activity assay using p-Nitrophenyl-5′-TMP as a substrate; assay type: biochemical
# T1 construct: 20 ng of human soluble ENPP1
# T1 sequence (P22413 103-925 limits assumed): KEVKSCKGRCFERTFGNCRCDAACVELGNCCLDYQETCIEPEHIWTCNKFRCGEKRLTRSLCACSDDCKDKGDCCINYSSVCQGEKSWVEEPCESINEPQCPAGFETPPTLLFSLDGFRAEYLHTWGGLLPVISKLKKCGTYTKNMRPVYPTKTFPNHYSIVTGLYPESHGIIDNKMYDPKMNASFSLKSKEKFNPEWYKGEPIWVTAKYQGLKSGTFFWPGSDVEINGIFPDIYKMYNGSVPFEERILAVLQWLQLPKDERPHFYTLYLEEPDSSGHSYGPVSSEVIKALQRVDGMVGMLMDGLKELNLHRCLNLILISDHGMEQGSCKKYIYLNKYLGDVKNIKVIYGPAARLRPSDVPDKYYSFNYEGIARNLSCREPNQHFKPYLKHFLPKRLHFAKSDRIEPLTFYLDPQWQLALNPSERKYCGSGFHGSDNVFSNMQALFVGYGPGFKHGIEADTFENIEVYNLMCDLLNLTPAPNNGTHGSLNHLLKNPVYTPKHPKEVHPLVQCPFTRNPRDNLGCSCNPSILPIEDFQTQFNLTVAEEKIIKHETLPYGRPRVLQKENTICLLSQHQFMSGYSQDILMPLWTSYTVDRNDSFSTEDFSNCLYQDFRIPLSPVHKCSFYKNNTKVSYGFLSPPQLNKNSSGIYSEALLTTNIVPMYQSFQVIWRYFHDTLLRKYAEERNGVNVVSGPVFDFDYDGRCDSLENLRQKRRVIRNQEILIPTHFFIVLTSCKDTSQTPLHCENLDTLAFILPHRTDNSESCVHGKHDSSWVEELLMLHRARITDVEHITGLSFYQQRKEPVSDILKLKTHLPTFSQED
# Description: ENPP1 is a transmembrane glycoprotein that hydrolyzes nucleotides and nucleotide derivatives with the formation of nucleotide-5′-monophosphates. ENPP1 hydrolyzes artificial phosphoric acid ester thymidine 5′monophosphate p-nitrophenyl ester (TMP-pNP) to nucleotide-5′-monophosphate and p-nitrophenol, which is a chromogenic product.
# Load into a well with 20 ng of human soluble ENPP1 in 50 μL and incubate at room temperature with 25 μL inhibitor solution (4× Final Concentration) for 30 mins. Then, add 25 μL 2 mM TMP solution (2× Final Concentration) into the well, Incubate at RT for 1 hour.
# (§1) The percent inhibition at each compound is calculated as follows: % inhibition=(ODMAX−ODCOMPOUND)/(ODMAX−ODMIN)*100. (MAX: absence of ENPP1 inhibitors control, MIN: blank control.)
# The IC50 values for percent inhibition versus compound concentration were determined by fitting the inhibition curves using a four-parameter variable slope model in GraphPad Prism® 8.
# human soluble ENPP1 [2] = target: T1, human soluble ENPP1; experiment: ENPP1 activity assay using p-Nitrophenyl-5′-AMP as a substrate; assay type: biochemical
# Description: AMP-pNP can be used as substrate of ENPP-1. Its hydrolysis products were nucleotide-5′-monophosphate and p-nitrophcnol, which is also a chromogenic product. The amount of p-nitrophenol product formed is measured using its absorbance at 405 nm, which is directly proportional to enzyme activity.
# Load into a well with […] of human soluble ENPP1 in 50 μL and incubate at room temperature with 25 μL inhibitor solution (4× Final Concentration) for 30 mins prior adding 25 μL 3 mM AMP solution (2× Final Concentration) into the well, Incubate at RT for 1 hour. The amounts of released p-nitrophenolate were measured by reading OD value at 405 nm.
# as §1
# (§2) The IC50 values for percent inhibition versus compound concentration are determined by fitting the inhibition curves using a four-parameter variable slope model in GraphPad Prism® 8.
# ENPP-1, MDA-MB-231 cells = target: T2, ENPP-1, MDA-MB-231 cells (Homo sapiens, UniProt P22413); experiment: cell-based; conditions: for inhibition at 20 µM: MDA-MB-231, read-out: % Inhibition (at 20 μM)
# T2 sequence (P22413 1-925): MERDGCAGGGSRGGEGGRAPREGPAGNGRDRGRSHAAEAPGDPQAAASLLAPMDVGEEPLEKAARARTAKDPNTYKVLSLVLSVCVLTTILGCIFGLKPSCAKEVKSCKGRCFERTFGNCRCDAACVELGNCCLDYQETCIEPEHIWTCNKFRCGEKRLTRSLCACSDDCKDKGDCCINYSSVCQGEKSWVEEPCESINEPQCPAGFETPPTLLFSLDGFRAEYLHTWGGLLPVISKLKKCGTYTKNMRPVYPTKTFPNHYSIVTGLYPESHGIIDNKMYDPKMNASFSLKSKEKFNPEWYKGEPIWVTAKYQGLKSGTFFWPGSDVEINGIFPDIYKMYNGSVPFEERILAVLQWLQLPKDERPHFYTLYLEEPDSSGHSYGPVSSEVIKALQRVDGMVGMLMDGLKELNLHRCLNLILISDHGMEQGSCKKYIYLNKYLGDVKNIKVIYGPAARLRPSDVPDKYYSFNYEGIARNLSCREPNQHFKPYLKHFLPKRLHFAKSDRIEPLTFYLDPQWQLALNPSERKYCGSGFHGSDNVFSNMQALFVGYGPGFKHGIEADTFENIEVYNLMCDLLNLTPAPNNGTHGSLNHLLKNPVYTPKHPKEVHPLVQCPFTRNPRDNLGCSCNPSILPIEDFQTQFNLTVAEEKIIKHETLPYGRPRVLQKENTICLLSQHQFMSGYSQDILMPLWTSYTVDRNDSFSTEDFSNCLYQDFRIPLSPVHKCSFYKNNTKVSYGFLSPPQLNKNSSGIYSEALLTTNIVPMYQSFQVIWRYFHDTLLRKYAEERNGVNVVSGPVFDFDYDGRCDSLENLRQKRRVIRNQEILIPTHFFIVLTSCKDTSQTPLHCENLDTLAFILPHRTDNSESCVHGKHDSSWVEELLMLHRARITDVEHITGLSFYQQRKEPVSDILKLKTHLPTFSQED
# Description: ENPP-1 were mainly expressed on the surface of cell membrane where it hydrolytes 2′3′-cGAMP to generate 5′-GMP and 5′-AMP. ENPP-1 also has the ability to hydrolyzes artificial phosphoric acid ester TMP-pNP to nucleotide-5′-monophosphate and p-nitrophcnol there, which is a chromogenic product.
# 8 point of different concentrations of each inhibitor were prepared with the final assay concentrations starting at 20 μM. 3× series dilution by DMEM medium without FBS was applied. Prior to adding inhibitors, 75000 cells per well were incubated at 37° C., 5% CO2 in DMEM for 24 hours. After removing the supernatant medium, 50 μL inhibitor solution was added into each well with cultured cells and incubate at 37° C., 5% CO2 for 60 minutes.
# as §2
structure (smiles),measurement,setting,value
"COc1cc2ncc3c(c2cc1OC)n(Cc1ccc(S(N)(=O)=O)cc1)c(=O)n3C [Compound 2, 4-((7,8-dimethoxy-3-methyl-2-oxo-2,3-dihydro-1H-imidazo[4,5-c]quinolin-1-yl)methyl)benzenesulfonamide]",IC50,human soluble ENPP1 [1],10 nM
"COc1ccc2c(c1)ncc1[nH]c(=O)n([C@H](C)c3ccc(S(N)(=O)=O)cc3)c12 [Compound 8, (R)-4-(1-(7-methoxy-2-oxo-2,3-dihydro-1H-imidazo[4,5-c]quinolin-1-yl)ethyl)benzenesulfonamide]",IC50,human soluble ENPP1 [1],0.3 nM
"COc1cc2ncc3ncn([C@@H](C)c4ccc(S(N)(=O)=O)cc4)c3c2cc1OC [Compound 11b, (S)-4-(1-(7,8-dimethoxy-1H-imidazo[4,5-c]quinolin-1-yl)ethyl)benzenesulfonamide]",IC50,human soluble ENPP1 [1],196 nM
"COc1cc2ncc3nnn(Cc4ccc(S(N)(=O)=O)cc4)c3c2cc1OC [Compound 13, 4-((7,8-dimethoxy-1H-[1,2,3]triazolo[4,5-c]quinolin-1-yl)methyl)benzenesulfonamide]",IC50,human soluble ENPP1 [1],4.3 nM
same,IC50,human soluble ENPP1 [2],33 nM
"COc1cc2ncc3ncn(CC4CCN(S(N)(=O)=O)CC4)c3c2cc1OC [Compound 32, 4-((7,8-dimethoxy-1H-imidazo[4,5-c]quinolin-1-yl)methyl)piperidine-1-sulfonamide]",IC50,human soluble ENPP1 [1],7.7 nM
"COc1cc2ncc3ncn(Cc4cccc(S(N)(=O)=O)c4)c3c2cc1OC [Compound 37, 3-((7,8-dimethoxy-1H-imidazo[4,5-c]quinolin-1-yl)methyl)benzenesulfonamide]",IC50,human soluble ENPP1 [1],165 nM
"COc1cc2ncc3nnc(Cc4ccc(S(N)(=O)=O)cc4)n3c2cc1OC [Compound 44, 4-((7,8-dimethoxy-2λ^2,10λ^4-[1,2,4]triazolo[4,3-a]quinoxalin-1-yl)methyl)benzenesulfonamide]",IC50,human soluble ENPP1 [1],65 nM
"COc1cc2ncc3ncn(Cc4ccc(S(N)(=O)=O)cc4)c3c2cn1 [Compound 50, 4-((7-methoxy-1H-imidazo[4,5-c][1,6]naphthyridin-1-yl)methyl)benzenesulfonamide]",IC50,human soluble ENPP1 [1],28 nM
"COc1cc2ncc3nnc(-c4ccc(CNS(N)(=O)=O)cc4)n3c2cc1OC [Compound 51, 4-(7,8-dimethoxy-[1,2,4]triazolo[4,3-a]quinoxalin-1-yl)benzyl sulfamide]",IC50,human soluble ENPP1 [1],884 nM
"COc1ccc2c(ncc3ncn([C@H](C)c4ccc(S(N)(=O)=O)cc4)c32)n1 [Compound 54, (R)-4-(1-(7-methoxy-1H-imidazo[4,5-c][1,8]naphthyridin-1-yl)ethyl)benzenesulfonamide]",IC50,"ENPP-1, MDA-MB-231 cells",900 nM
same,inhibition at 20 µM,"ENPP-1, MDA-MB-231 cells",82%
same,IC50,human soluble ENPP1 [1],0.53 nM
same,IC50,human soluble ENPP1 [2],1.8 nM
"COc1ccc2c(ncc3nc(OC)n(Cc4ccc(S(N)(=O)=O)c(F)c4)c32)n1 [Compound 78, 4-((2,7-dimethoxy-1H-imidazo[4,5-c][1,8]naphthyridin-1-yl)methyl)-2-fluorobenzenesulfonamide]",IC50,human soluble ENPP1 [1],1.7 nM
same,IC50,human soluble ENPP1 [2],7.2 nM
"COc1nc2nc(C)c3nc(C)n(Cc4ncc(S(N)(=O)=O)cn4)c3c2cc1Cl [Compound 91b, 2-((6-chloro-7-methoxy-2,4-dimethyl-1H-imidazo[4,5-c][1,8]naphthyridin-1-yl)methyl)pyrimidine-5-sulfonamide]",IC50,human soluble ENPP1 [1],62 nM
same,IC50,human soluble ENPP1 [2],199 nM
"COc1ccc2c(ncc3[nH]c(=O)n(Cc4cc(F)c(S(N)(=O)=O)c(F)c4)c32)n1 [Compound 100, 2,6-difluoro-4-((7-methoxy-2-oxo-2,3-dihydro-1H-imidazo[4,5-c][1,8]naphthyridin-1-yl)methyl)benzenesulfonamide]",IC50,human soluble ENPP1 [1],8.8 nM
"CCCC(=O)NS(=O)(=O)c1cc(F)c(Cn2c(=O)[nH]c3cnc4nc(OC)ccc4c32)c(F)c1 [Compound 106, sodium butyryl((3,5-difluoro-4-((7-methoxy-2-oxo-2,3-dihydro-1H-imidazo[4,5-c][1,8]naphthyridin-1-yl)methyl)phenyl)sulfonyl)amide]",IC50,"ENPP-1, MDA-MB-231 cells",> 6700 nM
same,inhibition at 20 µM,"ENPP-1, MDA-MB-231 cells",57%
"CNS(=O)(=O)c1cc(F)c(Cn2c(=O)[nH]c3cnc4nc(OC)ccc4c32)c(F)c1 [Compound 107, 3,5-difluoro-4-((7-methoxy-2-oxo-2,3-dihydro-1H-imidazo[4,5-c][1,8]naphthyridin-1-yl)methyl)-N-methylbenzenesulfonamide]",IC50,human soluble ENPP1 [1],43 nM
same,IC50,human soluble ENPP1 [2],79 nM
"COc1ccc2c(ncc3[nH]c(=O)n(Cc4c(F)cc(C(N)=O)cc4F)c32)n1 [Compound 109, 3,5-difluoro-4-((7-methoxy-2-oxo-2,3-dihydro-1H-imidazo[4,5-c][1,8]naphthyridin-1-yl)methyl)benzamide]",IC50,"ENPP-1, MDA-MB-231 cells",> 20000 nM
same,inhibition at 20 µM,"ENPP-1, MDA-MB-231 cells",11%
"COc1ccc2c(ncc3[nH]c(=O)n(Cc4ccc(CS(N)(=O)=O)cc4)c32)n1 [Compound 128, (4-((7-Methoxy-2-oxo-2,3-dihydro-1H-imidazo[4,5-c][1,8]naphthyridin-1-yl)methyl)phenyl)-methanesulfonamide]",inhibition at 20 µM,"ENPP-1, MDA-MB-231 cells",82%
"COc1ccc2c(ncc3ncn(Cc4c(F)cc(S(N)(=O)=O)cc4F)c32)n1 [Compound 129, 3,5-difluoro-4-((7-methoxy-1H-imidazo[4,5-c][1,8]naphthyridin-1-yl)methyl)benzenesulfonamide]",IC50,human soluble ENPP1 [1],0.1 nM
same,IC50,human soluble ENPP1 [2],0.19 nM
"COc1ccc2c(ncc3nc(C)n(Cc4c(F)cc(S(N)(=O)=O)cc4F)c32)n1 [Compound 130, 3,5-difluoro-4-((7-methoxy-2-methyl-1H-imidazo[4,5-c][1,8]naphthyridin-1-yl)methyl)benzenesulfonamide]",IC50,"human soluble ENPP1 [1]; substrate TMP-pNP, 20 ng human soluble ENPP1, Tris buffer pH 9.5, read-out: TMP-pNP (IC50)",0.16 nM
same,IC50,human soluble ENPP1 [2],0.16 nM
COc1ccc2c(ncc3[nH]c(=O)n(Cc4c(F)cc(NS(N)(=O)=O)cc4F)c32)n1 [Compound 138],IC50,human soluble ENPP1 [1],38 nM
same,IC50,human soluble ENPP1 [2],141 nM
